Results published in patent US9926281B2 (priority 2014, dated 2018).

Key:
human TACE = human TACE (Homo sapiens (Human), UniProt P78536); settings: read-out: TACE potency IC50
human ADAMTS-5 = human ADAMTS-5 (Homo sapiens (Human), UniProt Q9UNA0); settings: read-out: hADAMTS-5 potency IC50
Sequence of human ADAMTS-5 (Q9UNA0 262-930): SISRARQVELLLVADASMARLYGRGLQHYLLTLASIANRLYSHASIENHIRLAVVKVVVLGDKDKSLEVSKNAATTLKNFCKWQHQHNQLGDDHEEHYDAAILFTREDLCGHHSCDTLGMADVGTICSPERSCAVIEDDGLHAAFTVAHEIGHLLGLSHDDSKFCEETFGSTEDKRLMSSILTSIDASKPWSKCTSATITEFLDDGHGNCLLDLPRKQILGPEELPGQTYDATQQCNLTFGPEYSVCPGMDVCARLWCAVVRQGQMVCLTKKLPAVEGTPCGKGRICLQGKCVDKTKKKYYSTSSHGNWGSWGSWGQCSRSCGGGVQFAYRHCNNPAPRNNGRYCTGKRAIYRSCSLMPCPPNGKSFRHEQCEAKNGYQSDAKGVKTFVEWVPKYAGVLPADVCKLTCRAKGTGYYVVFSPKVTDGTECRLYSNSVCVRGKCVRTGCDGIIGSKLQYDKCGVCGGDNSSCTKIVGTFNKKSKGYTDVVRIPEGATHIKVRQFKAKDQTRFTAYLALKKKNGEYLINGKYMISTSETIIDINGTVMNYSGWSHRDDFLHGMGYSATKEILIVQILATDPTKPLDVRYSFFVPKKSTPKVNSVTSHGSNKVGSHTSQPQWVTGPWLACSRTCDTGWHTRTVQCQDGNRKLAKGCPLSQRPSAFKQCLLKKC
Protocol: Finally, the fluorescence is read on the Envision (Perkin Elmer) after an incubation of 90 min at 37° C.

Sequence of human TACE (P78536 whole entry, looked up, change not shown): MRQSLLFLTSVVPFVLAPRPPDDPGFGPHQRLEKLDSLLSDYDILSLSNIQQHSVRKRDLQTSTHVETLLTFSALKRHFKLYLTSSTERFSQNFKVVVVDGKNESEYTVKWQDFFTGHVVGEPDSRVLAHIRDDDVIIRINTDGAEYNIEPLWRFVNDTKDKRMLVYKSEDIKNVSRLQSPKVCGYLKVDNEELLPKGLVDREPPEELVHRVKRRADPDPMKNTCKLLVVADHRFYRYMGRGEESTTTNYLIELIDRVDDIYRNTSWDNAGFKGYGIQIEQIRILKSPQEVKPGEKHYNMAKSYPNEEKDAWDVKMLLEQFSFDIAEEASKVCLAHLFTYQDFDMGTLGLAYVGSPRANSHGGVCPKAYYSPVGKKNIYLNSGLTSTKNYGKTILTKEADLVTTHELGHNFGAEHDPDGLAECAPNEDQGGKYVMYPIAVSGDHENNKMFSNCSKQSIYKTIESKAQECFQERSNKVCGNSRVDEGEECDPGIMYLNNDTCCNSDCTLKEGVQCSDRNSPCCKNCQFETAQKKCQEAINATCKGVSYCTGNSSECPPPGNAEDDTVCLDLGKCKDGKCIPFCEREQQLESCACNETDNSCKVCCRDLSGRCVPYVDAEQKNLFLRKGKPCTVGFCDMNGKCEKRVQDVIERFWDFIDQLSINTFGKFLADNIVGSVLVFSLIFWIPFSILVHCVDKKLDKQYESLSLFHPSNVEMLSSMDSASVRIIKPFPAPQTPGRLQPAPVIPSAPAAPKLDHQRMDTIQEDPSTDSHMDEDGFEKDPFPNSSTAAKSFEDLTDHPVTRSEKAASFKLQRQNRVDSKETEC

SMILES	IC50 (human TACE) [nM]	IC50 (human ADAMTS-5) [nM]
COc1ccc(C2(CCC(=O)N3CCN(c4cc(F)cc(F)c4)[C@@H](C)C3)NC(=O)NC2=O)cn1 (stereo partly drawn) [compound 356, 5-[3-[(3S)-4-(3,5-difluorophenyl)-3-methyl-piperazin-1-yl]-3-oxo-propyl]-5-(6-methoxy-3-pyridyl)imidazolidine-2,4-dione]	> 4000	40
CCC1(CC(C)C(=O)N2CCN(c3cncc(F)c3)[C@@H](C)C2)NC(=O)NC1=O (stereo partly drawn) [compound 360, 5-ethyl-5-[3-[(3S)-4-(5-fluoro-3-pyridyl)-3-methyl-piperazin-1-yl]-2-methyl-3-oxo-propyl]imidazolidine-2,4-dione]	> 20000	119
C[C@H]1CN(C(=O)CCC2(c3cn(C)cn3)NC(=O)NC2=O)CCN1c1cc(F)cc(F)c1 (stereo partly drawn) [compound 361, 5-[3-[(3S)-4-(3,5-difluorophenyl)-3-methyl-piperazin-1-yl]-3-oxo-propyl]-5-(1-methylimidazol-4-yl)imidazolidine-2,4-dione]	> 20000	51
C[C@H]1CN(C(=O)CCC2(c3cocn3)NC(=O)NC2=O)CCN1c1cc(F)cc(F)c1 (stereo partly drawn) [compound 362, 5-[3-[(3S)-4-(3,5-difluorophenyl)-3-methyl-piperazin-1-yl]-3-oxo-propyl]-5-oxazol-4-yl-imidazolidine-2,4-dione]	> 20000	50
COCC1(CC(C)C(=O)N2CCN(c3cncc(Cl)c3)[C@@H](C)C2)NC(=O)NC1=O (stereo partly drawn) [compound 363, 5-[3-[(3S)-4-(5-chloro-3-pyridyl)-3-methyl-piperazin-1-yl]-2-methyl-3-oxo-propyl]-5-(methoxymethyl)imidazolidine-2,4-dione]	> 12000	76
COCC1(CC(C)C(=O)N2CCN(c3ccc(F)cc3)[C@@H](C)C2)NC(=O)NC1=O (stereo partly drawn) [compound 366, 5-[3-[(3S)-4-(4-fluorophenyl)-3-methyl-piperazin-1-yl]-2-methyl-3-oxo-propyl]-5-(methoxymethyl)imidazolidine-2,4-dione]	> 4000	36
C[C@H]1CN(C(=O)CCC2(C3CC3)NC(=O)NC2=O)CCN1c1cccc(-c2ccnn2C)c1 (stereo partly drawn) [compound 368, 5-cyclopropyl-5-[3-[(3S)-3-methyl-4-[3-(2-methylpyrazol-3-yl)phenyl]piperazin-1-yl]-3-oxo-propyl]imidazolidine-2,4-dione]	> 20000	257
Cc1noc(C)c1-c1cccc(N2CCN(C(=O)CCC3(C4CC4)NC(=O)NC3=O)C[C@@H]2C)c1 (stereo partly drawn) [compound 369, 5-cyclopropyl-5-[3-[(3S)-4-[3-(3,5-dimethylisoxazol-4-yl)phenyl]-3-methyl-piperazin-1-yl]-3-oxo-propyl]imidazolidine-2,4-dione]	> 20000	1080
CC(C)n1cc(-c2cccc(N3CCN(C(=O)CCC4(C5CC5)NC(=O)NC4=O)C[C@@H]3C)c2)cn1 (stereo partly drawn) [compound 370, 5-cyclopropyl-5-[3-[(3S)-4-[3-(1-isopropylpyrazol-4-yl)phenyl]-3-methyl-piperazin-1-yl]-3-oxo-propyl]imidazolidine-2,4-dione]	> 20000	532
C[C@H]1CN(C(=O)CCC2(C3CC3)NC(=O)NC2=O)CCN1c1cnnc(Cl)c1 (stereo partly drawn) [compound 373, 5-[3-[(3S)-4-(6-chloropyridazin-4-yl)-3-methyl-piperazin-1-yl]-3-oxo-propyl]-5-cyclopropyl-imidazolidine-2,4-dione]	> 20000	1530
C[C@H]1CN(C(=O)CCC2(C3CC3)NC(=O)NC2=O)CCN1c1ccn(C)n1 (stereo partly drawn) [compound 374, 5-cyclopropyl-5-[3-[(3S)-3-methyl-4-(1-methylpyrazol-3-yl)piperazin-1-yl]-3-oxo-propyl]imidazolidine-2,4-dione]	> 20000	3080
COC[C@]1(CC(C)C(=O)N2CCN(c3cc(F)cc(-c4cn[nH]c4)c3)[C@@H](C)C2)NC(=O)NC1=O (stereo partly drawn) [compound 376, 5-[3-[(3S)-4-[3-fluoro-5-(1H-pyrazol-4-yl)phenyl]-3-methyl-piperazin-1-yl]-2-methyl-3-oxo-propyl]-5-(methoxymethyl)imidazolidine-2,4-dione]	2430	52
C[C@H]1CN(C(=O)CCC2(C3CC3)NC(=O)NC2=O)CCN1c1cccc(-c2cncnc2)c1 (stereo partly drawn) [compound 377, 5-cyclopropyl-5-[3-[(3S)-3-methyl-4-(3-pyrimidin-5-ylphenyl)piperazin-1-yl]-3-oxo-propyl]imidazolidine-2,4-dione]	> 20000	700
C[C@@H](C[C@@]1(C2CC2)NC(=O)NC1=O)C(=O)N1CCN(c2ccc(F)c(-c3cn[nH]c3)c2)[C@@H](C)C1 [compound 378, 5-cyclopropyl-5-[3-[(3S)-4-[4-fluoro-3-(1H-pyrazol-4-yl)phenyl]-3-methyl-piperazin-1-yl]-2-methyl-3-oxo-propyl]imidazolidine-2,4-dione]	> 4000	22
COC[C@]1(C[C@H](C)C(=O)N2CCN(c3cccc(-c4cn[nH]c4)c3)[C@@H](C)C2)NC(=O)NC1=O [compound 380, 5-(methoxymethyl)-5-[2-methyl-3-[(3S)-3-methyl-4-[3-(1H-pyrazol-4-yl)phenyl]piperazin-1-yl]-3-oxo-propyl]imidazolidine-2,4-dione]	> 4000	47
C[C@H]1CN(C(=O)CCC2(C3CC3)NC(=O)NC2=O)CCN1c1cccc(-c2ccc(Cl)nn2)c1 (stereo partly drawn) [compound 381, 5-[3-[(3S)-4-[3-(6-chloropyridazin-3-yl)phenyl]-3-methyl-piperazin-1-yl]-3-oxo-propyl]-5-cyclopropyl-imidazolidine-2,4-dione]	> 20000	1970
C[C@H]1CN(C(=O)CCC2(c3ncccn3)NC(=O)NC2=O)CCN1c1cc(F)cc(F)c1 (stereo partly drawn) [compound 382, 5-[3-[(3S)-4-(3,5-difluorophenyl)-3-methyl-piperazin-1-yl]-3-oxo-propyl]-5-pyrimidin-2-yl-imidazolidine-2,4-dione]	> 20000	39
Cc1ccc(C2(CCC(=O)N3CCN(c4cc(F)cc(Cl)c4)[C@@H](C)C3)NC(=O)NC2=O)cn1 (stereo partly drawn) [compound 383, 5-[3-[(3S)-4-(3-chloro-5-fluoro-phenyl)-3-methyl-piperazin-1-yl]-3-oxo-propyl]-5-(6-methyl-3-pyridyl)imidazolidine-2,4-dione]	> 4000	43
Cc1ccc(C2(CCC(=O)N3CCN(c4cc(Cl)cc(Cl)c4)[C@@H](C)C3)NC(=O)NC2=O)cn1 (stereo partly drawn) [compound 384, 5-[3-[(3S)-4-(3,5-dichlorophenyl)-3-methyl-piperazin-1-yl]-3-oxo-propyl]-5-(6-methyl-3-pyridyl)imidazolidine-2,4-dione]	2230	60
Cc1ccc(C2(CCC(=O)N3CCN(c4cccc(F)c4)[C@@H](C)C3)NC(=O)NC2=O)cn1 (stereo partly drawn) [compound 385, 5-[3-[(3S)-4-(3-fluorophenyl)-3-methyl-piperazin-1-yl]-3-oxo-propyl]-5-(6-methyl-3-pyridyl)imidazolidine-2,4-dione]	> 4000	71
Cc1ccc(C2(CCC(=O)N3CCN(c4cc(F)cc(F)c4)[C@@H](C)C3)NC(=O)NC2=O)cn1 (stereo partly drawn) [compound 386, 5-[3-[(3S)-4-(3,5-difluorophenyl)-3-methyl-piperazin-1-yl]-3-oxo-propyl]-5-(6-methyl-3-pyridyl)imidazolidine-2,4-dione]	> 4000	48
